Source: patent publication US5672715A, “Herbicidal substituted 3-aryl-pyrazoles” (Monsanto Company, priority 1995, dated 1997)

Legend:
Type in all cases: in vivo
Barnyardgrass [1] = test: pre-emergence herbicide test; conditions: Echinochloa crus-galli, pre-emergence, 0.25 lb/A; read-out: % plant inhibition
Procedure, shortened: (§1)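 Greenhouse pan assay in which seeds lie under a treated topsoil cover; carrier was acetone or water. Inhibition (%) was recorded about 14 days post-treatment.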

Bedstraw Catchweed [2] = test: pre-emergence herbicide test; conditions: 0.25 lb/A
Procedure, shortened: as §1

Birdseye Speedwell [3] = test: pre-emergence herbicide test; conditions: pre-emergence, 0.25 lb/A; read-out: % plant inhibition
Procedure, shortened: as §1

Blackgrass [4] = test: pre-emergence herbicide test; conditions: 0.25 lb/A
Procedure, shortened: as §1

Cocklebur [5] = test: pre-emergence herbicide test; conditions: 0.25 lb/A
Procedure, shortened: as §1

Common Chickweed [6] = test: pre-emergence herbicide test; conditions: pre-emergence, 0.25 lb/A; read-out: % plant inhibition
Procedure, shortened: as §1

Corn [7] = test: pre-emergence herbicide test; conditions: 0.25 lb/A
Procedure, shortened: as §1

Downy Brome [8] = test: pre-emergence herbicide test; conditions: Bromus tectorum, pre-emergence, 0.25 lb/A; read-out: % plant inhibition
Procedure, shortened: as §1

Giant Foxtail [9] = test: pre-emergence herbicide test; conditions: Setaria faberi, pre-emergence, 0.25 lb/A; read-out: % plant inhibition
Procedure, shortened: as §1

Green Foxtail [10] = test: pre-emergence herbicide test; conditions: Setaria viridis, pre-emergence; 0.25 lb/A; read-out: % plant inhibition
Procedure, shortened: as §1

Morning Glory [11] = test: pre-emergence herbicide test; conditions: Ipomoea, pre-emergence, 0.25 lb/A; read-out: % plant inhibition
Procedure, shortened: as §1

Rape [12] = test: pre-emergence herbicide test; conditions: pre-emergence, 0.25 lb/A; read-out: % plant inhibition
Procedure, shortened: as §1

Seedling Johnsongrass [13] = test: pre-emergence herbicide test; conditions: Sorghum halepense, pre-emergence, 0.25 lb/A; read-out: % plant inhibition
Procedure, shortened: as §1

Soybean [14] = test: pre-emergence herbicide test; conditions: 0.25 lb/A
Procedure, shortened: as §1

Velvetleaf [15] = test: pre-emergence herbicide test; conditions: Abutilon theophrasti, pre-emergence, 0.25 lb/A; read-out: % plant inhibition
Procedure, shortened: as §1

Wheat [16] = test: pre-emergence herbicide test; conditions: Triticum aestivum, pre-emergence, 0.25 lb/A; read-out: % plant inhibition
Procedure, shortened: as §1

Wild Oats [17] = test: pre-emergence herbicide test; conditions: 0.25 lb/A
Procedure, shortened: as §1

Barnyardgrass [18] = test: post-emergence herbicide test; conditions: Echinochloa crus-galli, post-emergence, 0.25 lb/A; read-out: % plant inhibition
Procedure, shortened: (§2)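 Post-emergence activity is given as percent inhibition per species. Test compounds were atomizer-sprayed at 170.3 kPa, 1870 L/Ha carrier volume and roughly 0.4% v/v emulsifier onto greenhouse-raised plants aged two to three weeks, at the stated rates.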

Bedstraw Catchweed [19] = test: post-emergence herbicide test; conditions: 0.25 lb/A
Procedure, shortened: as §2

Birdseye Speedwell [20] = test: post-emergence herbicide test; conditions: post-emergence, 0.25 lb/A; read-out: % plant inhibition
Procedure, shortened: as §2

Blackgrass [21] = test: post-emergence herbicide test; conditions: 0.25 lb/A
Procedure, shortened: as §2

Cocklebur [22] = test: post-emergence herbicide test; conditions: Xanthium strumarium, post-emergence, 0.25 lb/A; read-out: % plant inhibition
Procedure, shortened: as §2

Common Chickweed [23] = test: post-emergence herbicide test; conditions: post-emergence, 0.25 lb/A; read-out: % plant inhibition
Procedure, shortened: as §2

Corn [24] = test: post-emergence herbicide test; conditions: 0.25 lb/A
Procedure, shortened: as §2

Downy Brome [25] = test: post-emergence herbicide test; conditions: 0.25 lb/A
Procedure, shortened: as §2

Giant Foxtail [26] = test: post-emergence herbicide test; conditions: 0.25 lb/A
Procedure, shortened: as §2

Green Foxtail [27] = test: post-emergence herbicide test; conditions: Setaria viridis, post-emergence, 0.25 lb/A; read-out: % plant inhibition
Procedure, shortened: as §2

Morning Glory [28] = test: post-emergence herbicide test; conditions: 0.25 lb/A
Procedure, shortened: as §2

Rape [29] = test: post-emergence herbicide test; conditions: post-emergence, 0.25 lb/A; read-out: % plant inhibition
Procedure, shortened: as §2

Seedling Johnsongrass [30] = test: post-emergence herbicide test; conditions: Sorghum halepense, post-emergence, 0.25 lb/A; read-out: % plant inhibition
Procedure, shortened: as §2

Soybean [31] = test: post-emergence herbicide test; conditions: 0.25 lb/A
Procedure, shortened: as §2

Velvetleaf [32] = test: post-emergence herbicide test; conditions: Abutilon theophrasti, post-emergence, 0.25 lb/A; read-out: % plant inhibition
Procedure, shortened: as §2

Wheat [33] = test: post-emergence herbicide test; conditions: Triticum aestivum, post-emergence, 0.25 lb/A; read-out: % plant inhibition
Procedure, shortened: as §2

Wild Oats [34] = test: post-emergence herbicide test; conditions: 0.25 lb/A
Procedure, shortened: as §2

## COCCOC(=O)c1cc(-c2nn(C)c(C(F)(F)F)c2C)c(F)cc1Cl [Compound 56]
Barnyardgrass [1]
  inhibition at 280.212 g/ha: 100%
Bedstraw Catchweed [2]; Galium aparine, pre-emergence, read-out: % plant inhibition
  inhibition at 280.212 g/ha: 90%
Birdseye Speedwell [3]
  inhibition at 280.212 g/ha: 100%
Blackgrass [4]; Alopecurus myosuroides, pre-emergence, read-out: % plant inhibition
  inhibition at 280.212 g/ha: 75%
Cocklebur [5]; Xanthium strumarium, pre-emergence, read-out: % plant inhibition
  inhibition at 280.212 g/ha: 20%
Common Chickweed [6]
  inhibition at 280.212 g/ha: 95%
Corn [7]; Zea mays, pre-emergence, read-out: % plant inhibition
  inhibition at 280.212 g/ha: 0%
Downy Brome [8]
  inhibition at 280.212 g/ha: 100%
Giant Foxtail [9]
  inhibition at 280.212 g/ha: 90%
Green Foxtail [10]
  inhibition at 280.212 g/ha: 100%
Morning Glory [11]
  inhibition at 280.212 g/ha: 80%
Rape [12]
  inhibition at 280.212 g/ha: 5%
Seedling Johnsongrass [13]
  inhibition at 280.212 g/ha: 50%
Soybean [14]; Glycine max, pre-emergence, read-out: % plant inhibition
  inhibition at 280.212 g/ha: 0%
Velvetleaf [15]
  inhibition at 280.212 g/ha: 100%
Wheat [16]
  inhibition at 280.212 g/ha: 5%
Wild Oats [17]; Avena fatua, pre-emergence, read-out: % plant inhibition
  inhibition at 280.212 g/ha: 55%
Barnyardgrass [18]
  inhibition at 280.212 g/ha: 50%
Bedstraw Catchweed [19]; Galium aparine, post-emergence, read-out: % plant inhibition
  inhibition at 280.212 g/ha: 98%
Birdseye Speedwell [20]
  inhibition at 280.212 g/ha: 100%
Blackgrass [21]; Alopecurus myosuroides, post-emergence, read-out: % plant inhibition
  inhibition at 280.212 g/ha: 60%
Cocklebur [22]
  inhibition at 280.212 g/ha: 99%
Common Chickweed [23]
  inhibition at 280.212 g/ha: 90%
Corn [24]; Zea mays, post-emergence, read-out: % plant inhibition
  inhibition at 280.212 g/ha: 35%
Downy Brome [25]; Bromus tectorum, post-emergence, read-out: % plant inhibition
  inhibition at 280.212 g/ha: 85%
Giant Foxtail [26]; Setaria faberi, post-emergence, read-out: % plant inhibition
  inhibition at 280.212 g/ha: 100%
Green Foxtail [27]
  inhibition at 280.212 g/ha: 98%
Morning Glory [28]; Ipomoea, post-emergence, read-out: % plant inhibition
  inhibition at 280.212 g/ha: 80%
Rape [29]
  inhibition at 280.212 g/ha: 98%
Seedling Johnsongrass [30]
  inhibition at 280.212 g/ha: 95%
Soybean [31]; Glycine max, post-emergence, read-out: % plant inhibition
  inhibition at 280.212 g/ha: 90%
Velvetleaf [32]
  inhibition at 280.212 g/ha: 100%
Wheat [33]
  inhibition at 280.212 g/ha: 16%
Wild Oats [34]; Avena fatua, post-emergence, read-out: % plant inhibition
  inhibition at 280.212 g/ha: 80%

## Cc1c(-c2cc(C(=O)OCCC(C)C)c(Cl)cc2F)nn(C)c1C(F)(F)F [Compound 51]
Barnyardgrass [1]
  inhibition at 280.212 g/ha: 50%
Bedstraw Catchweed [2]
  % plant inhibition: 55%
Birdseye Speedwell [3]
  inhibition at 280.212 g/ha: 90%
Blackgrass [4]
  % plant inhibition: 20%
Cocklebur [5]
  % plant inhibition: 0%
Common Chickweed [6]
  inhibition at 280.212 g/ha: 70%
Corn [7]
  % plant inhibition: 8%
Downy Brome [8]
  inhibition at 280.212 g/ha: 35%
Giant Foxtail [9]
  inhibition at 280.212 g/ha: 90%
Green Foxtail [10]
  inhibition at 280.212 g/ha: 100%
Morning Glory [11]
  inhibition at 280.212 g/ha: 15%
Rape [12]
  inhibition at 280.212 g/ha: 5%
Seedling Johnsongrass [13]
  inhibition at 280.212 g/ha: 80%
Soybean [14]
  % plant inhibition: 3%
Velvetleaf [15]
  inhibition at 280.212 g/ha: 90%
Wheat [16]
  inhibition at 280.212 g/ha: 0%
Wild Oats [17]
  % plant inhibition: 15%
Barnyardgrass [18]
  inhibition at 280.212 g/ha: 60%
Bedstraw Catchweed [19]
  % plant inhibition: 40%
Birdseye Speedwell [20]
  inhibition at 280.212 g/ha: 98%
Blackgrass [21]
  % plant inhibition: 45%
Cocklebur [22]
  inhibition at 280.212 g/ha: 85%
Common Chickweed [23]
  inhibition at 280.212 g/ha: 75%
Corn [24]
  % plant inhibition: 7%
Downy Brome [25]
  % plant inhibition: 45%
Giant Foxtail [26]
  % plant inhibition: 85%
Green Foxtail [27]
  inhibition at 280.212 g/ha: 80%
Morning Glory [28]
  % plant inhibition: 35%
Rape [29]
  inhibition at 280.212 g/ha: 20%
Seedling Johnsongrass [30]
  inhibition at 280.212 g/ha: 85%
Soybean [31]
  % plant inhibition: 65%
Velvetleaf [32]
  inhibition at 280.212 g/ha: 100%
Wheat [33]
  inhibition at 280.212 g/ha: 12%
Wild Oats [34]
  % plant inhibition: 55%
